Experimental data as given in patent publication US8765798B2, “Peptide derivatives with therapeutic activity” (Flamma S.p.A., priority 2006, dated 2014).

Test: carbonyl-quenching activity on HNE in vitro (residual HNE by reversed-phase chromatography)
Settings: for reacted HNE (%) t = 1 h mean / reacted HNE (%) t = 3 h mean / reacted HNE (%) t = 2 h mean: HNE 50 μM, compound 1 mM, phosphate buffer 10 mM pH 7.4, 37° C.; for reacted HNE (%) t = 1 h mean: one hour incubation; for reacted HNE (%) t = 3 h mean: three hours incubation; for reacted HNE (%) t = 2 h mean: two hours incubation
Experimental: The pharmacological activity of the compounds of the invention was determined in vitro evaluating their carbonyl-quenching activity on 4-hydroxy nonenal (HNE), which is known to be involved in a number of pathologies.
The carbonyl-quenching activity of a selected series of compounds of the present invention was assessed in vitro, incubating HNE (50 μM) with the tested compounds (1 mM), in phosphate buffer (10 mM) pH 7.4 at 37° C. The activity was evaluated after one, two and three hours incubation, determining the residual content of HNE by reversed-phase chromatography as described by Aldini G et al. [Biochem Biophys Res Commun. 2002 Nov. 15; 298(5):699-706]. The carbonyl-quenching activity is expressed as the reacted HNE percent compared with the HNE content in the absence of the test compounds.

Row | SMILES | reacted HNE (%) t = 1 h mean | reacted HNE (%) t = 3 h mean | reacted HNE (%) t = 2 h mean | carbonyl-quenching activity compared with carnosine (after one hour incubation)
1 | NCCC(=O)N[C@@H](Cc1cnc[nH]1)C(=O)O [Carnosine, reference compound] | 17.39% | 43.59% | 31.65% | –
2 | C[C@H](N)CC(=O)N[C@H](Cc1c[nH]cn1)C(=O)O [FL-926-A-002, (3S)-3-aminobutanoyl-D-histidine] | 6.568% | 21.58% | 14.26% | –
3 | N[C@@H](Cc1ccccc1)[C@@H](O)C(=O)N[C@H](Cc1c[nH]cn1)C(=O)O [FL-926-A-005, (2R,3S)-3-amino-2-hydroxy-4-phenylbutanoyl-D-histidine] | 15.2% | 38.56% | 27.75% | –
4 | N[C@@H](CC(=O)N[C@H](Cc1c[nH]cn1)C(=O)O)c1ccccc1 [FL-926-A-006, (3S)-3-amino-3-phenylpropanoyl-D-histidine] | 29.3% | 65.8531% | 50.7209% | almost twice as high
